We go through 50 molecules from patent publication US11040954B1, “CXCR3 receptor agonists” (RECEPTOS LLC, priority 2016, dated 2021).

The structures appear in SMILES notation.

In the assay the target is T1, CXCR3 (Homo sapiens, UniProt P49682).
T1 construct: host or cells: CHO-K1 (cAMP Hunter CHOK1 CXCR3 Gi cell line)
T1 sequence (P49682 1-368): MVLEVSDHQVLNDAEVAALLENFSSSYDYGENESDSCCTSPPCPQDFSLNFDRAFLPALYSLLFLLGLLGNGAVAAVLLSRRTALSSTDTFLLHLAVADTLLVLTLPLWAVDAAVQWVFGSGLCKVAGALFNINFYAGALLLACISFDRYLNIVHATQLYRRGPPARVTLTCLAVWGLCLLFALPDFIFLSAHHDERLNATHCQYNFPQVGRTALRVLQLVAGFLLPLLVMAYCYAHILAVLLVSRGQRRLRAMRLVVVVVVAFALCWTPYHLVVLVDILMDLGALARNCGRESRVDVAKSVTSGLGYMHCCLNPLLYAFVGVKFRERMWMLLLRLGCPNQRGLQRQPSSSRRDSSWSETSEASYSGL
Put plainly: CXCR3 cAMP agonist assay (cAMP Hunter CHOK1 CXCR3 Gi cell line, forskolin-stimulated, HitHunter cAMP detection). Type of assay: cell-based. The note with it: cAMP Hunter CHOK1 CXCR3 Gi cells, 20 μM forskolin, 30 minutes; read-out: Activity (CXCR3 cAMP agonist assay compound EC50). An outline of the steps: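 CHOK1 cells expressing human CXCR3 with Gi coupling, 50,000/well in suspension in HBSS/10 mM HEPES/0.1% BSA pH 7.4, were co-treated with 20 μM forskolin and compound (12-point, 0-10 μM, 1% DMSO) for 30 min. cAMP was read by enzyme-complementation luminescence; CXCL11 dose response set maximum efficacy.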
As usually defined, the EC50 is the concentration giving half of the maximal effect. For `Cc1cc(NC(=O)[C@H](CCN)NC(=O)[C@@H]2Cc3ccccc3CN2C(=O)CCC(=O)N2CCCCC2)ccc1Cl` [Compound 10-1, (S)—N—((S)-4-amino-1-((4-chloro-3-methylphenyl)amino)-1-oxobutan-2-yl)-2-(4-oxo-4-(piperidin-1-yl)butanoyl)-1,2,3,4-tetrahydroisoquinoline-3-carboxamide], the EC50 was < 50 nM. Take `Cc1cc(NC(=O)[C@H](CCN)NC(=O)[C@@H]2Cc3ccccc3CN2C(=O)CCC(=O)N2CCCC2C(C)C)ccc1Cl` (some centres unmarked) [Compound 12-71]: the EC50 is < 50 nM.

For `COc1c(C)cccc1NC(=O)[C@H](CCN)NC(=O)[C@@H]1Cc2ccccc2CN1C(=O)CCC(=O)c1ccccc1` [Compound 2-51], the EC50 was in the range of 50 to 250 nM. As to `CC(C)NCC[C@H](NC(=O)[C@@H]1Cc2ccccc2CN1C(=O)CCC(=O)c1ccccc1)C(=O)Nc1ccc(Cl)c(Cl)c1F` [Compound 8-7], the EC50 was < 50 nM. For `NCC[C@H](NC(=O)[C@@H]1Cc2ccccc2CN1C(=O)CCC(=O)c1ccccc1)C(=O)Nc1ccc(C(F)(F)F)c(F)c1` [Compound 2-11] the value was 250 to 500 nM; for `NCC[C@H](NC(=O)[C@@H]1Cc2ccccc2CN1C(=O)CCC(=O)c1ccccc1)C(=O)Nc1ccc2c(c1Cl)CCC2` [Compound 2-77], 50 to 250 nM; for `Cc1cc(NC(=O)[C@H](CCCCN)NC(=O)[C@@H]2Cc3ccccc3CN2C(=O)CCC(=O)c2ccccc2)cnc1C` [Compound 1-34], < 50 nM. For `CC1(C)COCCN1C(=O)CCC(=O)N1Cc2ccccc2C[C@H]1C(=O)N[C@@H](CCN)C(=O)Nc1ccc(Cl)c(Cl)c1F` [Compound 15-11] the value was < 50 nM; for `Cc1cc(NC(=O)[C@H](CCN)NC(=O)[C@@H]2Cc3ccccc3CN2C(=O)CCC(=O)N2C3CCC2CN(C)C3)ccc1Cl` [Compound 12-105], > 500 nM. For `Cc1cccc(Cl)c1NC(=O)[C@H](CCN)NC(=O)[C@@H]1Cc2ccccc2CN1C(=O)CCC(=O)c1ccccc1` [Compound 14-10] the value was > 500 nM; for `Cc1ccc(NC(=O)[C@H](CCN)NC(=O)[C@@H]2Cc3ccccc3CN2C(=O)CCC(=O)c2ccccc2)c(Cl)c1` [Compound 2-36], 250 to 500 nM; for `Cc1cc(NC(=O)[C@H](CCN)NC(=O)[C@@H]2Cc3ccccc3CN2C(=O)CCC(=O)N2CCN(S(C)(=O)=O)CC2)ccc1Cl` [Compound 12-15], 50 to 250 nM. For `NCC[C@H](NC(=O)[C@@H]1Cc2ccccc2CN1C(=O)CCC(=O)c1ccccc1)C(=O)Nc1ccc2c(c1)C(=O)CC2` [Compound 2-68], the EC50 lay within 50 to 250 nM.

Consider `Cc1cc(NC(=O)[C@H](CCN)NC(=O)[C@@H]2Cc3ccccc3CN2C(=O)CCC(=O)N2CC3(CCOCC3)C2)ccc1Cl` [Compound 12-24], for which the EC50 is 250 to 500 nM. Take `Cc1cc(NC(=O)[C@H](CCN)NC(=O)[C@@H]2Cc3ccccc3CN2C(=O)CCC(=O)N2CCC(C(C)(C)C)CC2)ccc1Cl` [Compound 12-87]: the EC50 is < 50 nM.

On to `Cc1cc(NC(=O)[C@H](CCN)NC(=O)[C@@H]2Cc3ccccc3CN2C(=O)CCC(=O)N(C)CCC(C)(C)C)ccc1Cl` [Compound 12-98], for which the EC50 is < 50 nM. `Cc1cc(NC(=O)[C@H](CCNS(C)(=O)=O)NC(=O)[C@@H]2Cc3ccccc3CN2C(=O)CCC(=O)N2CCCCC2)ccc1Cl` [Compound 32-2]: the EC50 was < 50 nM.

As to `Cc1cc(NC(=O)[C@H](CCCCN)NC(=O)[C@@H]2Cc3ccccc3CN2C(=O)CCC(=O)c2ccccc2)ccc1C(F)(F)F` [Compound 1-28], the EC50 is 50 to 250 nM. Turning to `NCC[C@H](NC(=O)[C@@H]1Cc2ccccc2CN1C(=O)CCC(=O)c1ccccc1)C(=O)Nc1cc(Cl)ccc1Cl` [Compound 14-11], the EC50 is 50 to 250 nM. For `Cc1cc(NC(=O)[C@H](CCN)NC(=O)[C@@H]2Cc3ccccc3CN2C(=O)CCC(=O)NC(C)(C)C)ccc1Cl` [Compound 12-83] the value was 50 to 250 nM. For the molecule `Cc1cc(NC(=O)[C@H](CCN)NC(=O)[C@@H]2Cc3ccccc3CN2C(=O)CCC(=O)N2CCCC2c2ccccc2)ccc1Cl` (some centres unmarked) [Compound 12-53], the EC50 was < 50 nM. For `Cc1c(Cl)ccc(NC(=O)[C@H](CCN)NC(=O)[C@@H]2Cc3ccccc3CN2C(=O)CCC(=O)c2ccccc2)c1Cl` [Compound 14-3] the value was < 50 nM. For `Cc1cc(NC(=O)[C@H](CCN)NC(=O)[C@@H]2Cc3ccccc3CN2C(=O)CCC(=O)N2CC(N(C)C)C2)ccc1Cl` [Compound 12-133] the value was 50 to 250 nM. For `Cc1ccc(C#N)cc1NC(=O)[C@H](CCN)NC(=O)[C@@H]1Cc2ccccc2CN1C(=O)CCC(=O)c1ccccc1` [Compound 14-20] the value was 250 to 500 nM; for `NCC[C@H](NC(=O)[C@@H]1Cc2ccc(F)cc2CN1C(=O)CCC(=O)N1CCCC12CCC2)C(=O)Nc1ccc(Cl)c(Cl)c1F` [Compound 15-59], < 50 nM. For the molecule `NCC[C@H](NC(=O)[C@@H]1Cc2ccccc2CN1C(=O)CCC(=O)c1ccccc1)C(=O)Nc1cccc(Cl)c1F` [Compound 2-34], the EC50 was < 50 nM. Take `Cc1cc(NC(=O)[C@H](CCN)NC(=O)[C@@H]2Cc3ccccc3CN2C(=O)CCC(=O)N2CCC3(CC3)C2)ccc1Cl` [Compound 12-69]: the EC50 is < 50 nM. Take `CC1(C)CCc2cc(NC(=O)[C@H](CCN)NC(=O)[C@@H]3Cc4ccccc4CN3C(=O)CCC(=O)c3ccccc3)ccc21` [Compound 2-72]: the EC50 was < 50 nM. For the molecule `NCCCC[C@H](NC(=O)[C@@H]1Cc2ccccc2CN1C(=O)CCC(=O)c1ccccc1)C(=O)Nc1cc(Cl)cc(Cl)c1` [Compound 1-17], the EC50 was 50 to 250 nM.

`CN(C(=O)CCC(=O)N1Cc2ccccc2C[C@H]1C(=O)N[C@@H](CCN)C(=O)Nc1ccc(Cl)c(Cl)c1F)C1CC1` [Compound 15-41]: the EC50 is > 500 nM. For `NCC[C@H](NC(=O)[C@@H]1Cc2ccccc2CN1C(=O)CCC(=O)c1ccccc1)C(=O)Nc1cc(Cl)cc(Cl)c1` [Compound 2-17] the value was 50 to 250 nM; for `NCC[C@H](NC(=O)[C@@H]1Cc2ccc(O)cc2CN1C(=O)CCC(=O)c1ccccc1)C(=O)Nc1ccc(Cl)c(Cl)c1F` [Compound 4-20], < 50 nM.

For the molecule `CC1(C)CCCN(C(=O)CCC(=O)N2Cc3ccccc3C[C@H]2C(=O)N[C@@H](CCN)C(=O)Nc2ccc3c(c2)CCC3)C1` [Compound 10-7], the EC50 was < 50 nM.

With `Cc1cccc(NC(=O)[C@H](CCN)NC(=O)[C@@H]2Cc3ccccc3CN2C(=O)CCC(=O)c2ccccc2)c1C#N` [Compound 14-19], the EC50 is 50 to 250 nM.

With `NCC[C@H](NC(=O)[C@@H]1Cc2ccccc2CN1C(=O)CCC(=O)N1CCCC12CCC2)C(=O)Nc1ccc2c(c1)CCC2` [Compound 10-6], the EC50 was < 50 nM. For `Cc1cc(NC(=O)[C@H](CCN)NC(=O)[C@@H]2Cc3ccccc3CN2C(=O)CCC(=O)N2CCCCC23CCC3)ccc1Cl` [Compound 12-72] the value was < 50 nM; for `Cc1cc(NC(=O)[C@H](Cc2cnc(N)nc2)NC(=O)[C@@H]2Cc3ccccc3CN2C(=O)CCC(=O)c2ccccc2)ccc1Cl` [Compound 3-14], 250 to 500 nM; for `Cc1cc(NC(=O)[C@H](CCN)NC(=O)[C@@H]2Cc3ccccc3CN2C(=O)CCC(=O)N2CCN(C)CC2)ccc1Cl` [Compound 10-3], < 50 nM. Turning to `CN1CCN(C(=O)CCC(=O)N2Cc3ccccc3C[C@H]2C(=O)N[C@@H](CCN)C(=O)Nc2ccc(Cl)c(Cl)c2F)CC1` [Compound 10-4], the EC50 is < 50 nM. For `CN1CCN(CC[C@H](NC(=O)[C@@H]2Cc3ccccc3CN2C(=O)CCC(=O)c2ccccc2)C(=O)Nc2ccc3c(c2)CCC3)CC1` [Compound 24-2] the value was 50 to 250 nM; for `CCN1CCN(C(=O)CCC(=O)N2Cc3ccccc3C[C@H]2C(=O)N[C@@H](CCN)C(=O)Nc2ccc(Cl)c(C)c2)C(C)(C)C1` [Compound 12-126], 50 to 250 nM; for `O=C(CCC(=O)N1Cc2ccccc2C[C@H]1C(=O)N[C@@H](CCN1CCC(F)(F)CC1)C(=O)Nc1ccc(Cl)c(Cl)c1F)c1ccccc1` [Compound 23-2], 50 to 250 nM. `CN(CC(C)(C)C)C(=O)CCC(=O)N1Cc2ccccc2C[C@H]1C(=O)N[C@@H](CCN)C(=O)Nc1ccc(Cl)c(Cl)c1F` [Compound 15-43]: the EC50 was < 50 nM. For `CN(C(=O)CCC(=O)N1Cc2ccccc2C[C@H]1C(=O)N[C@@H](CCN)C(=O)Nc1ccc(Cl)c(Cl)c1F)C(C)(C)C` [Compound 15-53] the value was 50 to 250 nM. Turning to `NCCCC[C@H](NC(=O)[C@@H]1Cc2ccccc2CN1C(=O)CCC(=O)c1ccccc1)C(=O)Nc1ccc(-c2ccccc2)cc1` [Compound 1-5], the concentration for a half-maximal effect (EC50) is > 500 nM. For `NCC[C@H](NC(=O)[C@@H]1Cc2ccccc2CN1C(=O)CCC(=O)c1ccccc1)C(=O)Nc1ccc2scnc2c1` [Compound 2-80] the value was 250 to 500 nM; for `Cc1cccc(NC(=O)[C@H](CCN)NC(=O)[C@@H]2Cc3ccccc3CN2C(=O)CCC(=O)c2ccccc2)c1F` [Compound 2-32], < 50 nM. As to `Cc1cc(NC(=O)[C@H](CCN)NC(=O)[C@@H]2Cc3ccccc3CN2C(=O)CCC(=O)N2CCC(O)C2)ccc1Cl` (some centres unmarked) [Compound 12-48], the EC50 fell in the range of 50 to 250 nM.

As for `NCC[C@@H](NC(=O)[C@@H]1Cc2ccccc2CN1C(=O)CCC(=O)c1ccccc1)C(=O)Nc1ccc(Cl)c(Cl)c1F` [Compound 14-29], the EC50 was 250 to 500 nM. For the molecule `Cc1cc(NC(=O)[C@H](CCN)NC(=O)[C@@H]2Cc3ccccc3CN2C(=O)CCC(=O)N2CCNCC2)ccc1Cl` [Compound 12-115], the EC50 was > 500 nM.
